Laboratory results published in patent US9663488B2, “Metalloenzyme inhibitor compounds” (Viamet Pharmaceuticals, Inc., priority 2013, dated 2017).
Where a name gives a salt, the structure may show the parent alone.

Tests used:
LpxC = biological target: T1, LpxC (Pseudomonas aeruginosa, UniProt P47205); assay: Inhibition of LpxC Enzyme; type: biochemical; conditions: LpxC enzyme is pseudomonas construct
T1 sequence (P47205 1-303): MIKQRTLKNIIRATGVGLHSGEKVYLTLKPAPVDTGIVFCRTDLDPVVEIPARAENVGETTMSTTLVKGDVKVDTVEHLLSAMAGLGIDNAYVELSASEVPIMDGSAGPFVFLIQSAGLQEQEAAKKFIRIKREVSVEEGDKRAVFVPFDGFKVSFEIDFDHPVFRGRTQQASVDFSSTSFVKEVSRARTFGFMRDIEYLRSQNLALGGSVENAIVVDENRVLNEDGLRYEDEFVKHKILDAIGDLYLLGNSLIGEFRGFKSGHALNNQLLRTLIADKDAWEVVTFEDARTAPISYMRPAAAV
Description: [The source words this procedure for another target and reports this target under the same test.] A. Inhibition of LpxC Enzyme
Test compounds were dissolved in 100% DMSO @ 10 mM. Then a series of dilutions were done with 100% DMSO, these were the first intermediate dilutions. Individual 100% DMSO dilutions were diluted independently to another intermediate dilution using assay buffer (bringing the DMSO concentration to 5%). Finally, 10 μl of all these 5% intermediate dilutions were used directly in the 50 μl reaction, making the final DMSO testing concentration at 1%. The enzymatic reactions were conducted in duplicate at room temperature for 1 hour in a 50 μL mixture containing MMP-2 assay buffer, 1 μM Mca-PLGLDpaAR, 10 uL MPP-2 enzyme (1.8 ng) and 10 μL of a test compound. All the reactions were conducted using 10 μl MMP-2 assay buffer in place of enzyme, to detect just the background fluorescence from the compound. After enzymatic reactions, fluorescence intensity was measured at an excitation of 328 nm and an emission of 393 nm using a Tecan Infinite M1000™ microplate reader.

[1] = test system: Pseudomonas aeruginosa (ATCC 27853); assay: Minimum Inhibitory Concentration (MIC), CLSI broth microdilution; type: cell-based; conditions: ATCC27853, 35±1° C., 18±2 h, concentration which completely inhibited growth
Description: A. Minimum Inhibitory Concentration (MIC)
Minimum Inhibitory Concentrations (MICS) were determined for Escherichia coli (American Type Culture Collection (ATCC) 25922) and Pseudomonas aeruginosa (ATCC 27853) in accordance with the Clinical and Laboratory Standards Institute (CLSI). Serial, one-half dilutions of compounds were prepared in 96-well dilution blocks in cation-adjusted Mueller-Hinton Broth (MBH)+2% DMSO and transferred to 96-well assay plates in duplicate. Cell suspensions of E. coli and P. aeruginosa were prepared in MHB and added to each well at concentrations of approximately 1.2×10^6 and 3.3×10^6 colony-forming-units per milliliter (cfu/mL), respectively. The inoculated plates were incubated at 35±1° C. for 18±2 h. At the completion of incubation the wells of each plate were evaluated visually for the presence of growth. […] In addition to visual evaluation, optical densities were determined using a Tecan Infinite M200 microplate reader measuring absorbance at 600 nm.

Row | Compound | IC50 (LpxC) [nM] | MIC [1] [µg/mL]
1 | CS(=O)(=O)Nc1cc2nc(-c3ccc(C#Cc4ccc(C(=O)N5CCCC[C@H]5C(=O)O)cc4Cl)cc3)cc(C(=O)NN)c2cn1 [Example 309, (S)-1-(3-chloro-(4-((4-(4-(hydrazinecarbonyl)-7-(methylsulfonamido)-1,6-naphthyridin-2-yl)phenyl)ethynyl)benzoyl)piperidine-2-carboxylic acid hydrochloride] | 2 | –
2 | NNC(=O)c1cc(-c2ccc(C#Cc3ccc(NS(=O)(=O)C(F)(F)F)cc3)cc2)nc2ccncc12 [Example 185, 1,1,1-trifluoro-N-(4-((4-(4-(hydrazinecarbonyl)-1,6-naphthyridin-2-yl)phenyl)ethynyl)phenyl)methanesulfonamide] | 5 | –
3 | CS(=O)(=O)Nc1cc2nc(-c3ccc(-c4ccc(-c5cc(CO)on5)cc4)cc3)cc(C(=O)NN)c2cn1 [Example 327, N-(4-(hydrazinecarbonyl)-2-(4′-(5-(hydroxymethyl)isoxazol-3-yl)-[1,1′-biphenyl]-4-yl)-1,6-naphthyridin-7-yl) methanesulfonamide hydrochloride] | 5 | –
4 | CCC(C)C(NC(=O)c1ccc(C#Cc2ccc(-c3cc(C(=O)NN)c4cnccc4n3)cc2)cc1)C(=O)O (racemic) [Example 172, 2-(4-((4-(4-(hydrazinecarbonyl)-1,6-naphthyridin-2-yl)phenyl)ethynyl)benzamido)-3-methylpentanoic acid] | 18 | –
5 | NNC(=O)c1cc(-c2ccc(C#Cc3ccc(C(=O)N4CCCC[C@H]4C(=O)O)cc3Cl)cc2)nc2ccncc12 [Example 202, (S)-1-(3-chloro-4-((4-(4-(hydrazinecarbonyl)-1,6-naphthyridin-2-yl)phenyl)ethynyl)benzoyl)piperidine-2-carboxylic acid hydrochloride] | 2 | 128
6 | O=C(NO)[C@@H](Cc1ccc2ccccc2c1)NS(=O)(=O)c1ccc2ccccc2c1 [BB-78485] | 20 | –
7 | NNC(=O)c1cc(-c2ccc(-c3ccc(-c4cc(C(=O)N5CCC[C@@H]5C(=O)O)on4)cc3)cc2)nc2ccncc12 [Example 31, (R)-1-(3-(4′-(4-(hydrazinecarbonyl)-1,6-naphthyridin-2-yl)-[1,1′-biphenyl]-4-yl)isoxazole-5-carbonyl)pyrrolidine-2-carboxylic acid hydrochloride] | 4 | –
8 | NNC(=O)c1cc(-c2ccc(-c3ccc(OCCNS(=O)(=O)C(F)(F)F)cc3)cc2)nc2ccncc12 [Example 101] | 6 | –
9 | NNC(=O)c1cc(-c2ccc(-c3ccc(-c4cc(CO)on4)cc3)cc2)nc2cc(NS(=O)(=O)CC(=O)O)ncc12 [Example 328, 2-(N-(4-(hydrazinecarbonyl)-2-(4′-(5-(hydroxymethyl)isoxazol-3-yl)-[1,1′-biphenyl]-4-yl)-1,6-naphthyridin-7-yl)sulfamoyl)acetic acid hydrochloride] | 2 | –
10 | CS(=O)(=O)NCc1cc(-c2ccc(-c3ccc(-c4cc(C(=O)NN)c5cnccc5n4)cc3)cc2)no1 [Example 35, N-((3-(4′-(4-(hydrazinecarbonyl)-1,6-naphthyridin-2-yl)-[1,1′-biphenyl]-4-yl)isoxazol-5-yl)methyl)methanesulfonamide] | 2 | –
11 | NNC(=O)c1cc(-c2ccc(-c3ccc(-c4cc(C(=O)N5CCCCC5C(=O)O)on4)cc3)cc2)nc2ccncc12 (racemic) [Example 115, 1-(3-(4′-(4-(hydrazinecarbonyl)-1,6-naphthyridin-2-yl)-[1,1′-biphenyl]-4-yl)isoxazole-5-carbonyl)piperidine-2-carboxylic acid] | 8 | –
12 | O=C(O)CCCOc1ccc(-c2ccc(-c3cc(N4C(=O)CNC4=S)c4cnccc4n3)cc2)cc1 [Example 83, 4-((4′-(4-(5-oxo-2-thioxoimidazolidin-1-yl)-1,6-naphthyridin-2-yl)-[1,1′-biphenyl]-4-yl)oxy)butanoic acid] | 4 | –
